Data taken from patent publication US10544130B2, “Metallo-beta-lactamase inhibitors” (priority 2015, dated 2020).

These molecules were tested on Pseudomonas aeruginosa PAO1 MB9798 (efflux+, IMP-1). Conditions: ratio MITC95 PA 9798/MITC95 PA 9799; imipenem at 2 μg/mL.
Summary of the method: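 Isogenic PAO1 pair (efflux+ MB9798, efflux− MB9799, both IMP-1) tested by microbroth MIC with fixed imipenem and/or ceftazidime, usually at CLSI breakpoint, plus fixed class A/C inhibitor against AmpC. MBL inhibitor titrated; concentration restoring susceptibility recorded and fold difference between strains taken as efflux extent.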
Work on `C[C@H](N)CNS(=O)(=O)c1ccc(-c2cccc3[nH]c(N)nc23)c(-c2nn[nH]n2)c1S(N)(=O)=O` [Example 184, 4-(2-amino-1H-benzo[d]imidazol-4-yl)-N1-((S)-2-aminopropyl)-3-(2H-tetrazol-5-yl)benzene-1,2-disulfonamide] yielded an Efflux ratio of 1.00.
In the case of `NCCNC(=O)c1cccc(-c2ccc(S(=O)(=O)NCCN)c(S(N)(=O)=O)c2-c2nn[nH]n2)c1N` [Example 204, 2-amino-N-(2-aminoethyl)-4′-(N-(2-aminoethyl)sulfamoyl)-5′-sulfamoyl-6′-(2H-tetrazol-5-yl)biphenyl-3-carboxamide], the Efflux ratio is reported as 1.00.
`COCCNCCNS(=O)(=O)c1ccc(-c2cccc3sc(N)nc23)c(-c2nnn[nH]2)c1S(N)(=O)=O` [Example 85, 4-(2-aminobenzo[d]thiazol-4-yl)-N1-(2-((2-methoxyethyl)amino)ethyl)-3-(1H-tetrazol-5-yl)benzene-1,2-disulfonamide] showed an Efflux ratio of 1.00.
`NC[C@@H](O)CNS(=O)(=O)c1ccc(-c2cccc3[nH]cnc23)c(-c2nn[nH]n2)c1S(N)(=O)=O` [Example 301, (R)-4-(1H-benzo[d]imidazol-4-yl)-N1-(3-amino-2-hydroxypropyl)-3-(2H-tetrazol-5-yl)-benzene-1,2-disulfonamide] gave an Efflux ratio of 1.00.
Work on `Nc1nc2c(-c3ccc(S(=O)(=O)N[C@@]4(CO)CCNC4)c(S(N)(=O)=O)c3-c3nnn[nH]3)cccc2[nH]1` [Example 176, (S)-4-(2-amino-1H-benzo[d]imidazol-4-yl)-N1-(3-(hydroxymethyl)pyrrolidin-3-yl)-3-(1H-tetrazol-5-yl)benzene-1,2-disulfonamide] yielded an Efflux ratio of 1.00.
For `Nc1ccc(-c2ccc(S(=O)(=O)N[C@@H]3CCNC3)c(S(N)(=O)=O)c2-c2nn[nH]n2)cn1` [Example 194, (R)-4-(6-aminopyridin-3-yl)-N^1-(pyrrolidin-3-yl)-3-(2H-tetrazol-5-yl)benzene-1,2-disulfonamide], the Efflux ratio was 0.80.
`NCc1nc2c(-c3ccc(S(=O)(=O)NC[C@H](O)CN)c(S(N)(=O)=O)c3-c3nn[nH]n3)cccc2s1` [Example 300, (R)—N1-(3-amino-2-hydroxypropyl)-4-(2-(aminomethyl)benzo[d]thiazol-4-yl)-3-(2H-tetrazol-5-yl)benzene-1,2-disulfonamide] showed an Efflux ratio of 1.00.
For `NC[C@@H]1CCN(S(=O)(=O)c2ccc(-c3cccc4sc(N)nc34)c(-c3nnn[nH]3)c2S(N)(=O)=O)C1` [Example 70, 3-(2-amino-1,3-benzothiazol-4-yl)-6-{[(3S)-3-(aminomethyl)pyrrolidin-1-yl]sulfonyl}-2-(1H-tetrazol-5-yl)benzenesulfonamide], the Efflux ratio was 1.00.
For `NC[C@H](CO)NS(=O)(=O)c1ccc(-c2cccnc2N)c(-c2nn[nH]n2)c1S(N)(=O)=O` [Example 215, (R)-N1-(1-amino-3-hydroxypropan-2-yl)-4-(2-aminopyridin-3-yl)-3-(2H-tetrazol-5-yl)benzene-1,2-disulfonamide], the Efflux ratio was 1.00.
For `NS(=O)(=O)c1c(S(=O)(=O)N[C@@H]2CCNC2)ccc(-c2cccc3cn[nH]c23)c1-c1nnn[nH]1` [Example 139, (R)-4-(1H-indazol-7-yl)-N1-(pyrrolidin-3-yl)-3-(1H-tetrazol-5-yl)benzene-1,2-disulfonamide], the Efflux ratio was 1.00.
Molecule `NS(=O)(=O)c1c(S(=O)(=O)N[C@@H]2CCNC2)ccc(-c2cccnc2N2CCNCC2)c1-c1nn[nH]n1` [Example 220, (R)-4-(2-(piperazin-1-yl)pyridin-3-yl)-N1-(pyrrolidin-3-yl)-3-(2H-tetrazol-5-yl)benzene-1,2-disulfonamide] has an Efflux ratio of 4.00.
`CN(C)C1CN(S(=O)(=O)c2ccc(-c3cccc4sc(N)nc34)c(-c3nnn[nH]3)c2S(N)(=O)=O)C1` [Example 39, 3-(2-amino-1,3-benzothiazol-4-yl)-6-{[3-(dimethylamino)azetidin-l-yl]sulfonyl}-2-(1H-tetrazol-5-yl)benzenesulfonamide] was tested, and the Efflux ratio was 16.00.
`NC[C@@H](N)CNS(=O)(=O)c1ccc(-c2cccc(-c3n[nH]c(N)n3)c2)c(-c2nn[nH]n2)c1S(N)(=O)=O` [Example 230, (R)-3′-(5-amino-1H-1,2,4-triazol-3-yl)-N4-(2,3-diaminopropyl)-2-(2H-tetrazol-5-yl)-[1,1′-biphenyl]-3,4-disulfonamide] gave an Efflux ratio of 1.00.
In the case of `NC[C@H](N)CNS(=O)(=O)c1ccc(-c2cccnc2N)c(-c2nn[nH]n2)c1S(N)(=O)=O` [Example 213, (S)-4-(2-aminopyridin-3-yl)-N1-(2,3-diaminopropyl)-3-(2H-tetrazol-5-yl)benzene-1,2-disulfonamide], the Efflux ratio is reported as 2.00.
`Nc1nc2c(-c3ccc(S(=O)(=O)N4CC[S+]([O-])CC4)c(S(N)(=O)=O)c3-c3nnn[nH]3)cccc2s1` [Example 44, 3-(2-amino-1,3-benzothiazol-4-yl)-6-[(1-oxidothiomorpholin-4-yl)sulfonyl]-2-(1H-tetrazol-5-yl)benzenesulfonamide] showed an Efflux ratio of 2.00.
`Nc1ccc(-c2ccc(S(=O)(=O)NC[C@H]3CNCCN3)c(S(N)(=O)=O)c2-c2nn[nH]n2)cn1` [Example 315, (R)-4-(6-aminopyridin-3-yl)-N1-(piperazin-2-ylmethyl)-3-(1H-tetrazol-5-yl)benzene-1,2-disulfonamide] gave an Efflux ratio of 1.00.
Work on `CN(C[C@@H]1CCCN1)S(=O)(=O)c1ccc(-c2cccc3sc(N)nc23)c(-c2nnn[nH]2)c1S(N)(=O)=O.O=CO` [Example 121, (S)-2-((4-(2-aminobenzo[d]thiazol-4-yl)-N-methyl-2-sulfamoyl-3-(1H-tetrazol-5-yl)phenylsulfonamido)methyl)pyrrolidin-1-ium formate] yielded an Efflux ratio of 4.00.
`NCCCNS(=O)(=O)c1ccc(-c2cccc3[nH]c(N)nc23)c(-c2nn[nH]n2)c1S(N)(=O)=O` [Example 182, 4-(2-amino-1H-benzo[d]imidazol-4-yl)-N1-(3-aminopropyl)-3-(2H-tetrazol-5-yl)benzene-1,2-disulfonamide] showed an Efflux ratio of 0.80.
Molecule `Nc1nc2c(-c3ccc(S(=O)(=O)NCC4(N)CC4)c(S(N)(=O)=O)c3-c3nn[nH]n3)cccc2s1` [Example 149, 4-(2-aminobenzo[d]thiazol-4-yl)-N1-((1-aminocyclopropyl)methyl)-3-(2H-tetrazol-5-yl)benzene-1,2-disulfonamide] has an Efflux ratio of 1.00.
With `NC[C@H](O)CNS(=O)(=O)c1ccc(-c2ccc(N)nc2)c(-c2nn[nH]n2)c1S(N)(=O)=O` [Example 309, (S)-N1-(3-amino-2-hydroxypropyl)-4-(6-aminopyridin-3-yl)-3-(2H-tetrazol-5-yl)benzene-1,2-disulfonamide] the Efflux ratio was 1.00.
`NC(=O)[C@H](N)CNS(=O)(=O)c1ccc(-c2cccc3[nH]c(N)nc23)c(-c2nn[nH]n2)c1S(N)(=O)=O` [Example 188, (2R)-2-amino-3-(4-(2-amino-1H-benzo[d]imidazol-4-yl)-2-sulfamoyl-3-(2H-tetrazol-5-yl)phenylsulfonamido)propanamide] was tested, and the Efflux ratio was 0.50.
With `CS(=O)(=O)Nc1ccc(-c2ccc(S(=O)(=O)N[C@@H]3CCNC3)c(S(N)(=O)=O)c2-c2nnn[nH]2)cc1` [Example 136, (R)-4′-(methylsulfonamido)-N4-(pyrrolidin-3-yl)-2-(1H-tetrazol-5-yl)-[1,1′-biphenyl]-3,4-disulfonamide] the Efflux ratio was 2.00.
For `NS(=O)(=O)c1c(S(=O)(=O)N[C@@H]2CCNC2)ccc(-c2cnc3ccccn23)c1-c1nnn[nH]1` [Example 140, (R)-4-(imidazo[1,2-a]pyridin-3-yl)-N1-(pyrrolidin-3-yl)-3-(1H-tetrazol-5-yl)benzene-1,2-disulfonamide], the Efflux ratio was 2.00.
`Nc1nc2c(-c3ccc(S(=O)(=O)N4CCC[C@@H](N)C4)c(S(N)(=O)=O)c3-c3nnn[nH]3)cccc2s1` [Example 68, 3-(2-amino-1,3-benzothiazol-4-yl)-6-{[(3R)-3-aminopiperidin-1-yl]sulfonyl}-2-(1H-tetrazol-5-yl)benzenesulfonamide] was tested, and the Efflux ratio was 2.00.
In the case of `CNS(=O)(=O)c1ccc(-c2cccc3sc(N)nc23)c(-c2nn[nH]n2)c1S(N)(=O)=O` [Example 152, 4-(2-aminobenzo[d]thiazol-4-yl)-N1-methyl-3-(2H-tetrazol-5-yl)benzene-1,2-disulfonamide], the Efflux ratio is reported as 8.00.
Molecule `NCCNS(=O)(=O)c1ccc(-c2cccc(C(=O)NC[C@@H](N)CO)c2N)c(-c2nn[nH]n2)c1S(N)(=O)=O` [Example 332, (R)-2-amino-N-(2-amino-3-hydroxypropyl)-4′-(N-(2-aminoethyl)sulfamoyl)-3′-sulfamoyl-2′-(2H-tetrazol-5-yl)-[1,1′-biphenyl]-3-carboxamide] has an Efflux ratio of 1.00.
For `NCC1CCCCN1S(=O)(=O)c1ccc(-c2cccc3sc(N)nc23)c(-c2nnn[nH]2)c1S(N)(=O)=O.O=C(O)C(F)(F)F` (stereo not drawn) [Example 110, (1-((4-(2-aminobenzo[d]thiazol-4-yl)-2-sulfamoyl-3-(1H-tetrazol-5-yl)phenyl)sulfonyl)piperidin-2-yl)methanaminium 2,2,2-trifluoroacetate], the Efflux ratio was 1.00.
In the case of `Nc1nc2c(-c3ccc(S(=O)(=O)NCC4CCN4)c(S(N)(=O)=O)c3-c3nn[nH]n3)cccc2[nH]1` (stereo not drawn) [Example 207, 4-(2-amino-1H-benzo[d]imidazol-4-yl)-N1-(azetidin-2-ylmethyl)-3-(2H-tetrazol-5-yl)benzene-1,2-disulfonamide], the Efflux ratio is reported as 2.00.
Molecule `COCCNS(=O)(=O)c1ccc(-c2cccc3sc(N)nc23)c(-c2nnn[nH]2)c1S(N)(=O)=O` [Example 24, 4-(2-amino-1,3-benzothiazol-4-yl)-N^1-(2-methoxyethyl)-3-(1H-tetrazol-5-yl)benzene-1,2-disulfonamide] has an Efflux ratio of 4.00.
In the case of `Nc1ccc2cccc(-c3ccc(S(N)(=O)=O)c(S(N)(=O)=O)c3-c3nn[nH]n3)c2n1` [Example 2, 4-(2-aminoquinolin-8-yl)-3-(2H-tetrazol-5-yl)benzene-1,2-disulfonamide], the Efflux ratio is reported as 1.00.
